Measurements taken from ChEMBL document CHEMBL1201862, “PubChem BioAssay data set” (2004).
“And” between values parts separate entries of the source, which are not always exact repeats. Equal entries are not always repeated. Structures can show the parent of a compound that is named as a salt. The source made the active and inactive calls.

Columns and labels:
[1] = molecular target: Cytochrome P450 2D6 (Homo sapiens, UniProt P10635);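 also: CYP2D6 member of a cytochrome P450 panel assay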
[2] = Luminescence Cell-Based Dose Confirmation HTS to Identify Activators of 5'UTR Stem-Loop Driven Alpha-Synuclein mRNA Translation in H4 Neuroglioblastoma Cells. [Related pubchem assays: 1829 (Project Summary), 1814 (Primary HTS)]; format: functional
[3] = Luminescence Cell-Based Dose Response HTS to Identify Activators of Luciferase Translation or Activity in H4 […] Cells. [Related pubchem assays: 1829 (Project Summary), 1814 (Primary HTS)]; format: functional
[4] = system: H4; assay: Luminescence Cell-Based Dose Response HTS to Identify Activators of 5'UTR Stem-Loop Driven Prion Protein mRNA Translation in H4 Neuroglioblastoma Cells. [Related pubchem assays: 1829 (Project Summary), 1814 (Primary HTS)]; format: functional; details: Homo sapiens
[5] = molecular target: Cytochrome P450 2C9 (Homo sapiens, UniProt P11712)
Sequence of Cytochrome P450 2C9 (P11712 whole entry): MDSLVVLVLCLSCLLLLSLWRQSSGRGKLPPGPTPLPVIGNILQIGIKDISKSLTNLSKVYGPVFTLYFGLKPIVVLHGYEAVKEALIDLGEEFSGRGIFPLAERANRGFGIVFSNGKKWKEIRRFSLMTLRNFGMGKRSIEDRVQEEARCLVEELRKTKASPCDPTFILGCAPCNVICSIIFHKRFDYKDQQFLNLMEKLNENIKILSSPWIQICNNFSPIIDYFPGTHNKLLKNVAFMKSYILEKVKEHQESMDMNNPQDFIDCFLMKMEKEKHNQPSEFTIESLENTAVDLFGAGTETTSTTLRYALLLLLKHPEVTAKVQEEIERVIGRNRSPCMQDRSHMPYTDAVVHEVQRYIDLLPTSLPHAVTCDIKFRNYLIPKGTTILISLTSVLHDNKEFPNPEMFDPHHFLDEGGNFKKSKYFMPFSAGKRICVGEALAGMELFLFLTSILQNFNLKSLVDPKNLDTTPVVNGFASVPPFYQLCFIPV

[6] = molecular target: T1, Polyadenylate-binding protein 1 (Homo sapiens, UniProt P11940); assay: MLLE binding blockers, Cy5 peptide tracer – biochemical, fluorescence polarization, Cy5-PAM2 peptide, secondary, miRNA deadenylation inhibitor project, dose response (AID 602260); format: functional; details: read-out: IC50_Mean
T1 sequence (P11940 whole entry, the tested form may be a part): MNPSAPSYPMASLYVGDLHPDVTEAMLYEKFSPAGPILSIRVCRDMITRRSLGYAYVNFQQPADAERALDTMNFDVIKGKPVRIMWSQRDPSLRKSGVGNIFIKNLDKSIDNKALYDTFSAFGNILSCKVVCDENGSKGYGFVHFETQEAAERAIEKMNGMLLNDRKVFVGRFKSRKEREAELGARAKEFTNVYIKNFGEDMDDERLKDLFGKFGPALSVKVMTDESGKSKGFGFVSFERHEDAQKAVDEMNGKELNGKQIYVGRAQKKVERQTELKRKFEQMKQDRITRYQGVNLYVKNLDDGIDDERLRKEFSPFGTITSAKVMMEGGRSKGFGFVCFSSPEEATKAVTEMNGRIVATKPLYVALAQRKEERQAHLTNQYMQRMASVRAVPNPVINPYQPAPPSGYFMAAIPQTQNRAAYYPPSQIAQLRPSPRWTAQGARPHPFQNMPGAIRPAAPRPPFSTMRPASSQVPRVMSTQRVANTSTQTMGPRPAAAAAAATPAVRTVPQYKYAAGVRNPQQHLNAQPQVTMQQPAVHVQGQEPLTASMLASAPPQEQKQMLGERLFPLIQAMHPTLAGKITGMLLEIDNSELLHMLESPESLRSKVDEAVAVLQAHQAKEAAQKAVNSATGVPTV

[7] = molecular target: T1, Polyadenylate-binding protein 1; assay: MLLE domain peptide-binding blockers, IC50 – biochemical, fluorescence polarization, FITC-PAM2 peptide, dose response (AID 602259); format: functional; details: read-out: IC50_Mean
[8] = system: P388/ADR; assay: cells; format: functional; details: Mus musculus
[9] = system: SN12K1; assay: cells; format: functional; details: Homo sapiens
[10] = system: P388; assay: cells; format: functional; details: Mus musculus
[11] = molecular target: Cytochrome P450 3A4 (Homo sapiens, UniProt P08684);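 also: CYP3A4 tested as one member of a cytochrome P450 panel screen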
Sequence of Cytochrome P450 3A4 (P08684 whole entry): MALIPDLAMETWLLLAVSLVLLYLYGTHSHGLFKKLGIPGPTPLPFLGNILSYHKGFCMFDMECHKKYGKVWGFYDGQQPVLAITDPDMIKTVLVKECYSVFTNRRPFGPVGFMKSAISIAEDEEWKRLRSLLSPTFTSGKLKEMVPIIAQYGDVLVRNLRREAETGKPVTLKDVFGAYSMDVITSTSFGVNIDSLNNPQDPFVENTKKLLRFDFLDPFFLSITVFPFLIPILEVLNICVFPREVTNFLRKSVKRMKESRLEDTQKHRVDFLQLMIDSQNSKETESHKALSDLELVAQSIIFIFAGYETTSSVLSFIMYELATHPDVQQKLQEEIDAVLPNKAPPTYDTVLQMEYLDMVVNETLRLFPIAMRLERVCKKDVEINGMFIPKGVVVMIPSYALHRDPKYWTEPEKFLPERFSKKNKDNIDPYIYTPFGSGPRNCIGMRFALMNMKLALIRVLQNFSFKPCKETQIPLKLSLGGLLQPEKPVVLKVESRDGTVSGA

[12] = molecular target: T2, Cytochrome P450 1A2 (Homo sapiens, UniProt P05177);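 also: PubChem cytochrome P450 panel assay, CYP1A2 panel member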
T2 sequence (P05177 whole entry): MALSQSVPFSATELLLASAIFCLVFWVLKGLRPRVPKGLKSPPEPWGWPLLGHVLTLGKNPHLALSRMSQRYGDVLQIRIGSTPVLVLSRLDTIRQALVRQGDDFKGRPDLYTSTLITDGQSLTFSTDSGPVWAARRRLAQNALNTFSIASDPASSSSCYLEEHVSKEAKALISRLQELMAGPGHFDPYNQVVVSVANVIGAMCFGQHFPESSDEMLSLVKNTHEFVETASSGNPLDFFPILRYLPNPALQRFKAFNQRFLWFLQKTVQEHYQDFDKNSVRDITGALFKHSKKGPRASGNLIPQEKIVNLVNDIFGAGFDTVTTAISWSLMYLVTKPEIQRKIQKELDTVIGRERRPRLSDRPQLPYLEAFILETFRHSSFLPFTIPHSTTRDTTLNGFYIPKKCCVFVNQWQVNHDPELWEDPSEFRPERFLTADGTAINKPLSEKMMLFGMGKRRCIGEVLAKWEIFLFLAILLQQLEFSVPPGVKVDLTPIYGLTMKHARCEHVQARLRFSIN

[13] = molecular target: Cytochrome P450 2C19 (Homo sapiens, UniProt P33261); assay: Cytochrome panel assay with activity outcomes. Panel member name: p450-cyp2c19 Compounds with AC50 equal or less than 10 uM are considered active; format: functional; details: read-out: AC50
Sequence of Cytochrome P450 2C19 (P33261 whole entry): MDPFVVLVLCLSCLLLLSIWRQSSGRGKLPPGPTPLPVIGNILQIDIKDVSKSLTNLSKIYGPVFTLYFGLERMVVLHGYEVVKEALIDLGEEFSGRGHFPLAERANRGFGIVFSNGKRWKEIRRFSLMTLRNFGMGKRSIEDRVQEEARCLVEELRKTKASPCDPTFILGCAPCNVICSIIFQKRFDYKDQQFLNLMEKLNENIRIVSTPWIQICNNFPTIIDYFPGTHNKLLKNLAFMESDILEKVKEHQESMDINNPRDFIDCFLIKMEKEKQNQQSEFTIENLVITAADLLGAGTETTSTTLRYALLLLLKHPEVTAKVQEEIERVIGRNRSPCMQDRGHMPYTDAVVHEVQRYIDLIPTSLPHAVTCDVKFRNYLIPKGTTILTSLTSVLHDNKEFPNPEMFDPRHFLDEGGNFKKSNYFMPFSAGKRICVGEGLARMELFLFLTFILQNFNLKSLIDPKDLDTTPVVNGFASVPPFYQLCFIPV

Sequence of Cytochrome P450 2D6 (P10635 whole entry): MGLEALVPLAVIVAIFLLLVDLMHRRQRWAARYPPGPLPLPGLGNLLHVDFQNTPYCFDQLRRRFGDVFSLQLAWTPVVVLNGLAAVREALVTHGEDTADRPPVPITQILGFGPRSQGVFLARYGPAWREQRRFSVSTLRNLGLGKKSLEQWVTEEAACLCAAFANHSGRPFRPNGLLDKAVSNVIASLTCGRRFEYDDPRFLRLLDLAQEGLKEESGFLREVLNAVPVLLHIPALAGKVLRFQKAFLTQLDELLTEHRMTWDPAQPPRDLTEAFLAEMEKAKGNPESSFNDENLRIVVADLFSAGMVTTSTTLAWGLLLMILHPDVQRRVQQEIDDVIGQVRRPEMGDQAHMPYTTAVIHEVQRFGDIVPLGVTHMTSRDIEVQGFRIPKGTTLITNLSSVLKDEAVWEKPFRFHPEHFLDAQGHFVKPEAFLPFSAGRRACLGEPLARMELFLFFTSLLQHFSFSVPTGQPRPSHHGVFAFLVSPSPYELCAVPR

Compound: N#C[C@H](c1ccccc1)N1CCCN([C@@H](C#N)c2ccccc2)[C@H]1c1ccccc1O
- AC50 [1]: 5.01 µM (inconclusive)

Compound: O=C(Nc1cc(C(F)(F)F)ccc1Cl)c1cc2nc3c(c(C(F)(F)F)n2n1)CCCC3
- EC50 [2]: 1.53 µM (active)
- EC50 [3]: 0.365 µM (active)
- EC50 [4]: 0.195 µM (active)

Compound: C=CCNC(SCC(=O)c1ccc(Cl)cc1)=C1C(=O)N(C)C(=O)N(C)C1=O
- EC50 [2]: 24.9 µM (active)
- EC50 [3]: > 120 µM (not active)
- EC50 [4]: 19.5 µM (active)

Compound: CC(C)NCCCOc1ccc(Cl)cc1Br
- AC50 [5]: 4.47 µM (inconclusive)

Compound: CN(Cc1ccc(Cl)cc1)C(=O)COC(=O)CSc1ccc([N+](=O)[O-])cc1
- IC50 [6]: > 66 µM (inactive)
- IC50 [7]: > 66 µM (inactive)

Compound: CCCCCCCCC1=CCC(CN(C)C)C1=O (stereo unspecified)
- GI50 [8]: 2.92 µM (inactive)
- GI50 [9]: 17.6 µM (inactive)
- GI50 [10]: 4.29 µM (inactive)

Compound: Cc1noc(C)c1C(=O)N1CCC2(CCCN(c3ccccc3)C2)CC1
- AC50 [1]: 12.6 µM (inconclusive)
- AC50 [11]: 15.8 µM (inconclusive)

Compound: CCC(=O)Nc1ccc(Cl)c(NC(=S)NC(=O)COc2ccccc2)c1
- IC50 [6]: > 66 µM (inactive)
- IC50 [7]: > 66 µM (inactive)

Compound: COC(=O)c1cc(OC)c(OC)cc1NC(=O)CSc1ccc(C)cc1
- AC50 [5]: 7.94 µM (inconclusive)

Compound: CCCC[C@@H]1C[C@H]1C(NC(=O)c1ccco1)c1ccccc1 (stereo partly specified)
- AC50 [1]: 39.8 µM (inconclusive)
- AC50 [11]: 20 µM (inconclusive)

Compound: S=C(N=Nc1ccccc1)NNc1ccccc1
- EC50 [2]: 14.4 µM (active)
- EC50 [3]: 14.1 µM (active)
- EC50 [4]: 27.9 µM (inconclusive)

Compound: NC(=S)Nc1ccc(S(=O)(=O)c2ccc(NC(N)=S)cc2)cc1
- IC50 [6]: > 66 µM (inactive)
- IC50 [7]: > 66 µM (inactive)

Compound: CC(=O)OC1C=C(C=O)C(O)(C=O)C2(C)CCCC(C)(C)C12 (stereo unspecified)
- GI50 [8]: 0.322 µM (active)
- GI50 [9]: 1.36 µM (inactive)
- GI50 [10]: 0.142 µM (active)

Compound: Oc1ccc(Br)cc1/C=N/n1cnc2ccccc21
- EC50 [2]: 11 µM (active)
- EC50 [3]: 15.8 µM (active)
- EC50 [4]: 17.9 µM (active)

Compound: CCC/C=C(\CCC)C(NS(C)(=O)=O)c1ccccc1 (stereo unspecified)
- AC50 [1]: 39.8 µM (inconclusive)
- AC50 [12]: 25.1 µM (inconclusive)
- AC50 [11]: 31.6 µM (inconclusive)

Compound: NNCCc1ccccc1 [PHENELZINE]
- AC50 [5]: 158 nM (inconclusive) and 10 µM (inconclusive)

Compound: COc1c2occc2c(OC)c2c(=O)cc(C)oc12 [KHELLIN]
- AC50 [1]: 10 µM (inconclusive)

Compound: NC(=O)CN1CCN(c2nc(-c3ccc(F)cc3)cs2)CC1
- AC50 [11]: 14.1 µM (inconclusive)
- AC50 [5]: 6.31 µM (inconclusive)

Compound: O=C(Nc1nc2c(F)cc(F)cc2s1)C1CCN(C(=O)c2ccc(F)cc2)CC1
- EC50 [2]: 3.61 µM (active)
- EC50 [3]: 8.78 µM (active)
- EC50 [4]: 26.8 µM (active)

Compound: O=C(c1csnn1)N1CCC2(CC1)CCN(c1ncccn1)CC2
- AC50 [1]: 39.8 µM (inconclusive)

Compound: C/C(=N/NC(=O)c1ccoc1C)c1ccc(NC(=O)c2ccncc2)cc1
- EC50 [2]: 23.9 µM (active)
- EC50 [3]: 0.148 µM (inconclusive)
- EC50 [4]: 0.102 µM (active)

Compound: COC(=O)[C@@H](O)[C@](O)(CCC(C)C)C(=O)O[C@@H]1C(OC)=C[C@]23CCCN2CCc2cc4c(cc2[C@H]13)OCO4
- GI50 [8]: 2.29 µM (inactive)
- GI50 [9]: 0.682 µM (active)
- GI50 [10]: 0.247 µM (active)

Compound: COCCn1c(=O)c(-c2cc(F)cc(F)c2)nc2cnc(Oc3ccccc3)nc21
- AC50 [13]: 39.8 µM (inconclusive)
- AC50 [11]: 20 µM (inconclusive)
- AC50 [5]: 20 µM (inconclusive)

Compound: CSCSCC(CO)NC(=O)/C=C\c1c(C)[nH]c(=O)[nH]c1=O (stereo unspecified)
- GI50 [8]: 57.4 µM (inactive)
- GI50 [9]: 11.1 µM (inactive)
- GI50 [10]: 23.1 µM (inactive)

Compound: CC(=O)N(C)c1ccc(Nc2cc(C)nc3ccc4nc[nH]c4c23)cc1 [ACODAZOLE HYDROCHLORIDE]
- GI50 [8]: 37 µM (inactive)
- GI50 [9]: 4.9 µM (inactive)
- GI50 [10]: 4.5 µM (inactive)

Compound: CCCOC1CCCN(C(=O)CCc2nnc(Cc3cccc(C)c3)o2)C1 (stereo unspecified)
- EC50 [2]: 9.73 µM (active)
- EC50 [3]: 16.5 µM (active)
- EC50 [4]: 16.5 µM (inconclusive)

Compound: COc1ccc(CNc2nc(-c3cccc(C#N)c3)nc3ccccc23)c(OC)c1
- AC50 [13]: 1.58 µM (inconclusive)
- AC50 [1]: 3.98 µM (inconclusive)
- AC50 [5]: 1 µM (inconclusive)

Compound: CC12CCC(C(=O)Nc3nc4ccccc4s3)(OC1=O)C2(C)C (stereo unspecified)
- EC50 [2]: > 60 µM (not active)
- EC50 [3]: 18.9 µM (active)
- EC50 [4]: 12.7 µM (active)

Compound: CCN1CCCCC(=N/O)/C(=N/O)CCCC1
- AC50 [1]: 1.58 µM (inconclusive)

Compound: O=C1CN=C(Nc2ccc(Cl)cc2)N1c1ccccc1
- AC50 [1]: 20 µM (inconclusive)
- AC50 [12]: 14.1 µM (inconclusive)
- AC50 [11]: 14.1 µM (inconclusive)
- AC50 [5]: 0.00562 µM (inconclusive)

Compound: CCOC(=O)C1CCN(c2c(Nc3ccc4c(c3)OCCO4)c(=O)c2=O)CC1
- EC50 [2]: 18.9 µM (active)
- EC50 [3]: 18 µM (active)
- EC50 [4]: 9.87 µM (active)

Compound: Cc1cc(C)c[n+](-c2[n-]c(=O)sc2C=NNC(=O)c2cccnc2)c1
- IC50 [6]: > 66 µM (inactive)
- IC50 [7]: 59.7 µM (inactive)

Compound: N/C(=N\O)N/N=C\c1ccccc1O
- GI50 [8]: 1.54 µM (inactive)
- GI50 [9]: 3.91 µM (inactive)
- GI50 [10]: 1.66 µM (inactive)

Compound: COc1cccc(NC(=O)CCC(=O)Nc2ccc3nc(N4CCOCC4)cc(C)c3c2)c1
- EC50 [2]: > 120 µM (not active)
- EC50 [3]: > 120 µM (not active)
- EC50 [4]: > 120 µM (not active)

Compound: C=CCSc1nc2c(c(=O)[nH]c(=O)n2C)n1C(C)C
- IC50 [6]: > 66 µM (inactive)
- IC50 [7]: > 66 µM (inactive)

Compound: CCn1c(Cc2ccccc2)nnc1SCC(=O)NC(C)(C)C
- AC50 [13]: 14.1 µM (inconclusive)
- AC50 [5]: 12.6 µM (inconclusive)

Compound: CC(C)=CCc1c(O)ccc2ccc(=O)oc12 [OSTHENOL]
- GI50 [8]: 50 µM (inactive)
- GI50 [9]: 59.7 µM (inactive)
- GI50 [10]: 42.7 µM (inactive)

Compound: S=C1SCN(C2CCCCCCCCCCC2)CN1C1CCCCCCCCCCC1
- AC50 [1]: 3.16 µM (inconclusive)

Compound: CCCCCC1CCC(C(=O)NN=C(S)NCC)CC1 (stereo unspecified)
- AC50 [1]: 15.8 µM (inconclusive)
- AC50 [12]: 12.6 µM (inconclusive)
- AC50 [5]: 1.78 µM (inconclusive)

Compound: CN(Cc1ccccc1)S(=O)(=O)c1ccc(NC(=S)NC(=O)C(C)(C)C)cc1
- IC50 [6]: > 66 µM (inactive)
- IC50 [7]: > 66 µM (inactive)

Compound: CCN(CCCl)CCNc1c2ccccc2nc2ccc(OC)cc12
- GI50 [8]: 0.29 µM (active)
- GI50 [9]: 0.647 µM (active)
- GI50 [10]: 0.0757 µM (active)

Compound: O=C(NC(=S)N1C[C@H]2C[C@H](C1)c1cccc(=O)n1C2)c1ccc(Cl)cc1
- IC50 [6]: > 66 µM (inactive)
- IC50 [7]: > 66 µM (inactive)

Compound: CCNc1ncc2nc(-c3cccs3)c(=O)n(CCC#N)c2n1
- AC50 [5]: 12.6 µM (inconclusive)

Compound: O[C@H](COc1ccccc1)CN1CCCCC1
- AC50 [1]: 5.01 µM (inconclusive)

Compound: CC1=C(C(=O)N2CCCCCC2)C2(CCC(C)CC2)OC1=O (stereo unspecified)
- AC50 [12]: 0.0158 µM (inconclusive)
- AC50 [5]: 28.2 µM (inconclusive)

Compound: O=C1C(Br)=CC2(C=C1Br)CCNC1=C2C2=NCCc3c[nH]c(c32)C1=O
- GI50 [8]: 0.0162 µM (active)
- GI50 [9]: 0.168 µM (active)
- GI50 [10]: 0.0146 µM (active)

Compound: CCSc1nc(COC(=O)NC)c(COC(=O)NC)n1C
- GI50 [8]: > 100 µM (inactive)
- GI50 [9]: > 100 µM (inactive)
- GI50 [10]: 67.6 µM (inactive)

Compound: CNC(=O)CSP(=S)(OC)OC [DIMETHOATE]
- IC50 [6]: > 66 µM (inactive)
- IC50 [7]: > 66 µM (inactive)

Compound: O=C1C=CC2OC(c3ccccc3)C(O)C2O1 (stereo unspecified)
- GI50 [8]: 1.16 µM (inactive)
- GI50 [9]: 4.6 µM (inactive)
- GI50 [10]: 1.56 µM (inactive)

Compound: C[C@H]1CN(C2CCC(C#N)(c3ccc(F)cc3)CC2)CC[C@@]1(C(=O)O)c1ccccc1 (stereo partly specified)
- AC50 [1]: 10 µM (inconclusive)
